We go through 21 compounds from patent US11198699B2 (ALIGOS THERAPEUTICS, INC., priority 2019, dated 2021).

One may read the IC50 as the point on the concentration scale where inhibition reaches its midpoint. Low readings indicate inhibition by little substance, high ones a need for much substance. In general, EC50 refers to the concentration needed to bring the measured effect to its halfway point. Read a high EC50 as a less potent agent.

Assay [1] concerns the target PRMT5/MEP50 (Homo sapiens (Human), UniProt O14744). Briefly: PRMT5/MEP50 enzyme inhibition assay, Assay 2 (384-well, MALDI mass spectrometry, histone H4 1-21 peptide). Format: biochemical. Particulars: 1 μM SAM, 0.1 μM histone H4 1-21 peptide, 18-hour incubation at rt. On the procedure:
Compounds were tested for inhibition of methyltransferase activity in 384-well plate assay format using mass spectrometry technology. In this enzyme inhibition assay, compounds were tested in a 11-dose IC50 mode with 3-serial dilution, in duplicate, starting at 1, 10, or 100 μM. Reactions were carried out at 1 μM SAM and 0.1 μM histone H4 1-21 peptide as substrates for methyl transfer. Following an 18-hour incubation at rt, the reaction was stopped with 0.5% formic acid. Products of the reaction were captured while unreacted substrates were washed away, prior to MALDI mass spectrometry detection and analysis. Percent enzyme activity was calculated based on no inhibitor DMSO control as 100% activity. EC50 values were determined in GraphPad Prism 8 using the [inhibitor] vs. response—Variable slope (four parameters) function.
Compounds of Formula (I) show activity in this assay. A value of ‘A’ in the table below indicates an IC50 of <1 nM, a value of ‘B’ indicates an IC50≥1 nM to ≤100 nM, and a value of ‘C’ indicates an IC50 value of >100 nM.

For assay [2], the system named is HepG2 hepatoma cells. As to the kind of experiment: Cell proliferation assay, HepG2 (CellTiter-Glo, 7 days). Format: cell-based. Particulars: HepG2, 7 days, CellTiter-Glo 2.0. On the procedure:
(§1) HepG2 hepatoma cells (ATCC, HB-8065) were maintained in DMEM with high glucose (Lonza, 12-914F) supplemented with 10% fetal bovine serum (FBS; Biowest, S181B-500) and 2 mM L-glutamine (Biowest, X0551-100) at 37° C. and 5% CO2. A549 lung carcinoma cells (ATCC, CCL-185) were maintained in F-12K medium (ThermoFisher 21127030) supplemented with 10% FBS at 37° C. and 5% CO2. Exponentially growing HepG2 or A549 were plated in white, clear-bottom 96-well plates (Corning, 3903) at a cell density of 2000 (HepG2) or 350 (A549) cells per well in 199 μL of HepG2 medium. Next, 1 μL of a 5-fold 9-point dilution series of test compound in DMSO was added to the different wells. Cells were incubated at 37° C. 5% CO2 for 7 days. Cell viability was assessed on day 7 with the CellTiter-Glo 2.0 Cell Viability assay kit (Promega, G9243) to quantify the intracellular amounts of ATP: first, 100 μL of cell culture medium was removed from each well, next 100 μL of CellTiter-Glo® 2.0 Reagent was added and plates were shaken for 2 minutes on an orbital shaker. After 10 minutes stabilization at room temperature, read-out was performed on a ThermoFisher VarioSkan Lux plate reader. Counts were normalized to DMSO control (0% inhibition) and the cytotoxic control (100% inhibition) and EC50 values were determined in GraphPad Prism 8 using the [Agonist] vs. response—Variable slope (four parameters) function.
(§2) As shown by the data of Table 2, compounds of Formula (I) have activity in this assay. A value of ‘A’ in the table below indicates an EC50 of <20 nM, a value of ‘B’ indicates an EC50≥20 nM to <100 nM, a value of ‘C’ indicates an EC50 value of EC50≥100 nM to <1000 nM and a value of ‘D’ indicates an EC50≥1000 nM
(In general: ATP-based viability assays read luminescence as a measure of living cells.)

Assay [3] relates to A549 lung carcinoma cells. Briefly: Cell proliferation assay, A549 (CellTiter-Glo, 7 days). Format: cell-based. Particulars: A549, 7 days, CellTiter-Glo 2.0. The protocol: as §1, §2

PRMT5/MEP50, sequence (O14744 whole entry): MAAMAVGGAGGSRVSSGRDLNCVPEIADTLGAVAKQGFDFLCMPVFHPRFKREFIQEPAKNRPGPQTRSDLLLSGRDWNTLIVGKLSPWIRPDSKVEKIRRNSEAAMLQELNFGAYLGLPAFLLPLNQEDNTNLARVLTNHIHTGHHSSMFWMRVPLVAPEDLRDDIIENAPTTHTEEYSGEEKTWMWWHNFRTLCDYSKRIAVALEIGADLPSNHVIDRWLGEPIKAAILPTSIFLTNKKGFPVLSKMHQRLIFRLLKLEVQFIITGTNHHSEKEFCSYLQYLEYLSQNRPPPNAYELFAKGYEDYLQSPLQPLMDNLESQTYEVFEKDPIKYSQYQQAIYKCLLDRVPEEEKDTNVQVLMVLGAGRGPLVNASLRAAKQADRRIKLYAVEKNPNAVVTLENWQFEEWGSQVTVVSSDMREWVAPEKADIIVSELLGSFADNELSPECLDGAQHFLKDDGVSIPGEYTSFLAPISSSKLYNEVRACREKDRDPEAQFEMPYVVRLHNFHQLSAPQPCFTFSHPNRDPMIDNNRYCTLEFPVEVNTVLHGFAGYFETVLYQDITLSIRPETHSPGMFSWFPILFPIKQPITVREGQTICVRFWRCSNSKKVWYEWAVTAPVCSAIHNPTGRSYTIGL
PRMT5/MEP50, sequence (Q9BQA1 whole entry partner): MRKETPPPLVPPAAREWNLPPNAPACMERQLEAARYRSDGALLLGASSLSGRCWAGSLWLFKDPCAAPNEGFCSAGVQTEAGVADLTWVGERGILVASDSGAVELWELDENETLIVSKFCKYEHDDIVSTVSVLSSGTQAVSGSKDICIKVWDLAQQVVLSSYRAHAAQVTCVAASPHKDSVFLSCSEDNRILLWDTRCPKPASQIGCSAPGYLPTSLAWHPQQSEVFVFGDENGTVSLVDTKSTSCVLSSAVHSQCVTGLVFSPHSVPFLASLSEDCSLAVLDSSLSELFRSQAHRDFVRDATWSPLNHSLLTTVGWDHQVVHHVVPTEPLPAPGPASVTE

`C[C@]1(CCc2ccc3cc4c(nc3c2)NC(=O)CO4)C[C@@H](n2ccc3c(N)ncnc32)[C@H](O)[C@@H]1O` [Compound 31, 7-(2-((1S,2R,3S,4R)-4-(4-amino-7H-pyrrolo[2,3-d]pyrimidin-7-yl)-2,3-dihydroxy-1-methylcyclopentyl)ethyl)-2H-[1,4]oxazino[3,2-b]quinolin-3(4H)-one]: the IC50 in assay [1] is under 1 nM. The EC50 in assay [2] (Homo sapiens, 168 h) is 100 to 1000 nM; in assay [3] (Homo sapiens, A549, 168 h) it was at least 1000 nM.

As to `C[C@]1(CCc2cc(F)c3cc(Cl)c(N)nc3c2)C[C@@H](n2ccc3c(N)nccc32)[C@H](O)[C@@H]1O` [Compound 39, (1S,2R,3S,5R)-5-(4-amino-1H-pyrrolo[3,2-c]pyridin-1-yl)-3-(2-(2-amino-3-chloro-5-fluoroquinolin-7-yl)ethyl)-3-methylcyclopentane-1,2-diol], the IC50 in assay [1] is under 1 nM. The EC50 lay in the range of 20 to 100 nM in assay [2] (Homo sapiens, 168 h) and 20 to 100 nM in assay [3] (Homo sapiens, A549, 168 h).

`Cn1c(N)nc2cc(CC[C@@]3(C)C[C@@H](n4ccc5c(N)ncnc54)[C@H](O)[C@@H]3O)ccc2c1=O` [Compound 29]: the IC50 in assay [1] is under 1 nM. Besides, the EC50 is under 20 nM in assay [2] and 20 to 100 nM in assay [3].

Consider `C[C@]1(CCc2ccc3nc(N)ccc3c2)C[C@@H](n2ccc3c(N)ncc(F)c32)[C@H](O)[C@@H]1O` [Compound 21-A], for which the IC50 in assay [1] is 1 to 100 nM. In addition, the EC50 is at least 1000 nM in assay [2] (Homo sapiens, 168 h) and at least 1000 nM in assay [3] (Homo sapiens, A549, 168 h).

In the case of `C#C[C@]1(CCc2cc(F)c3cc(Cl)c(N)nc3c2)C[C@@H](n2ccc3c(N)ncnc32)[C@H](O)[C@@H]1O` [Compound 52], the IC50 in assay [1] was under 1 nM. Further, the EC50 in assay [2] (Homo sapiens, 168 h) is under 20 nM; in assay [3] (Homo sapiens, A549, 168 h), under 20 nM.

For the compound `C[C@]1(CCc2ccc3cc(Cl)c(N)nc3c2)C[C@@H](n2ccc3c(N)ncc(F)c32)[C@H](O)[C@@H]1O` [Compound 49], in assay [1], the IC50 was under 1 nM. Also, the EC50 in assay [2] (Homo sapiens, 168 h) was under 20 nM; in assay [3] (Homo sapiens, A549, 168 h) it was under 20 nM.

On to `C[C@]1(CCCCc2ccc(Cl)c(N)n2)C[C@@H](n2ccc3c(N)ncnc32)[C@H](O)[C@@H]1O` [Compound 46, (1S,2R,3S,5R)-3-(4-(6-amino-5-chloropyridin-2-yl)butyl)-5-(4-amino-7H-pyrrolo[2,3-d]pyrimidin-7-yl)-3-methylcyclopentane-1,2-diol], for which the IC50 in assay [1] was under 1 nM. Besides, the EC50 fell in the range of 100 to 1000 nM in assay [2] (Homo sapiens, 168 h) and 100 to 1000 nM in assay [3] (Homo sapiens, A549, 168 h).

Consider `N#C[C@]1(CCc2cc(F)c3cc(Cl)c(N)nc3c2)C[C@@H](n2ccc3c(N)ncnc32)[C@H](O)[C@@H]1O` [Compound 44, (1S,2R,3S,4R)-1-(2-(2-amino-3-chloro-5-fluoroquinolin-7-yl)ethyl)-4-(4-amino-7H-pyrrolo[2,3-d]pyrimidin-7-yl)-2,3-dihydroxycyclopentane-1-carbonitrile], for which the IC50 in assay [1] was under 1 nM. For the same compound, the EC50 in assay [2] (Homo sapiens, 168 h) fell in the range of 100 to 1000 nM; in assay [3] (Homo sapiens, A549, 168 h) it was 20 to 100 nM.

In turn, `CC(C)C(=O)O[C@H]1[C@H](n2ccc3c(N)ncnc32)C[C@](C)(CCc2ccc3ccc(N)nc3c2)[C@H]1OC(=O)C(C)C` [Compound 26, (1S,2R,3S,5R)-5-(4-amino-7H-pyrrolo[2,3-d]pyrimidin-7-yl)-3-(2-(2-aminoquinolin-7-yl)ethyl)-3-methylcyclopentane-1,2-diyl bis(2-methylpropanoate)] showed an IC50 in assay [1] of over 100 nM. Also, the EC50 was 20 to 100 nM in assay [2] (Homo sapiens, 168 h) and 100 to 1000 nM in assay [3] (Homo sapiens, A549, 168 h).

In turn, `C[C@]1(CCc2ccc3cc(Br)c(N)nc3c2)C[C@@H](n2ccc3c(N)nc(Cl)nc32)[C@H](O)[C@@H]1O` [Compound 54] came in with an IC50 in assay [1] of under 1 nM. For the same compound, the EC50 was under 20 nM in assay [2] (Homo sapiens, 168 h) and under 20 nM in assay [3] (Homo sapiens, A549, 168 h).

`Nc1nc2cc(CC[C@@]3(F)C[C@@H](n4ccc5c(N)ncnc54)[C@H](O)[C@@H]3O)cc(F)c2cc1Cl` [Compound 36, (1S,2S,3R,5R)-3-(2-(2-amino-3-chloro-5-fluoroquinolin-7-yl)ethyl)-5-(4-amino-7H-pyrrolo[2,3-d]pyrimidin-7-yl)-3-fluorocyclopentane-1,2-diol] registered an IC50 in assay [1] of under 1 nM. Moreover, the EC50 was under 20 nM in assay [2] (Homo sapiens, 168 h) and under 20 nM in assay [3] (Homo sapiens, A549, 168 h).

Regarding `C[C@]1(CCc2ccc3ccc(N)nc3n2)C[C@@H](n2ccc3c(N)ncnc32)[C@H](O)[C@@H]1O` [Compound 24], the IC50 in assay [1] was under 1 nM. The EC50 in assay [2] and in assay [3] was 20 to 100 nM throughout.

On to `CCCCCOC(=O)Nc1ccc2cc(CC[C@@]3(C)C[C@@H](n4ccc5c(N)ncnc54)[C@H](O)[C@@H]3O)ccc2n1` [Compound 20-A], for which the IC50 in assay [1] was over 100 nM. Also, the EC50 was in the range of 100 to 1000 nM in assay [2] (Homo sapiens, 168 h) and 100 to 1000 nM in assay [3] (Homo sapiens, A549, 168 h).

Compound `CC(C)C(=O)O[C@H]1[C@H](n2ccc3c(N)ncnc32)C[C@](C)(CCc2ccc3nc(N)ccc3c2)[C@H]1OC(=O)C(C)C` [Compound 26-A] yielded an IC50 in assay [1] of over 100 nM. For the same compound, the EC50 in assay [2] and in assay [3] was at least 1000 nM each time.

In assay [1], `Nc1nc2cc(CC[C@@]3(CO)C[C@@H](n4ccc5c(N)ncnc54)[C@H](O)[C@@H]3O)cc(F)c2cc1Cl` [Compound 40, (1S,2R,3S,5R)-3-(2-(2-amino-3-chloro-5-fluoroquinolin-7-yl)ethyl)-5-(4-amino-7H-pyrrolo[2,3-d]pyrimidin-7-yl)-3-(hydroxymethyl)cyclopentane-1,2-diol] gave an IC50 of under 1 nM. The EC50 in assay [2] (Homo sapiens, 168 h) is under 20 nM; in assay [3] (Homo sapiens, A549, 168 h), under 20 nM.

Take `C[C@]1(CCc2cc(F)c3cc(Cl)c(N)nc3c2)C[C@@H](n2ccc3c(N)nc(Cl)nc32)[C@H](O)[C@@H]1O` [Compound 53]: the IC50 in assay [1] is under 1 nM. Also, the EC50 in assay [2] and in assay [3] was under 20 nM each time.

In the case of `C[C@]1(CCc2ccc3ccc(N)nc3c2)C[C@@H](n2ccc3c(N)nccc32)[C@H](O)[C@@H]1O` [Compound 38, (1S,2R,3S,5R)-5-(4-amino-1H-pyrrolo[3,2-c]pyridin-1-yl)-3-(2-(2-aminoquinolin-7-yl)ethyl)-3-methylcyclopentane-1,2-diol], the IC50 in assay [1] is under 1 nM. Further, the concentration giving a half-maximal response (EC50) was under 20 nM in assay [2] (Homo sapiens, 168 h) and under 20 nM in assay [3] (Homo sapiens, A549, 168 h).

The compound `Cc1cnc2cc(OC[C@@]34C[C@@H]3[C@@H](n3ccc5c(N)ncnc53)[C@H](O)[C@@H]4O)ccn12` [Compound 16] yielded an IC50 in assay [1] of under 1 nM. Also, the EC50 in assay [2] and in assay [3] was at least 1000 nM throughout.

As to `C[C@]1(CCc2cc(F)c3ccc(N)nc3c2)C[C@@H](n2ccc3c(N)ncnc32)[C@H](O)[C@@H]1O` [Compound 37, (1S,2R,3S,5R)-3-(2-(2-amino-5-fluoroquinolin-7-yl)ethyl)-5-(4-amino-7H-pyrrolo[2,3-d]pyrimidin-7-yl)-3-methylcyclopentane-1,2-diol], in assay [1], the IC50 was under 1 nM. Moreover, the EC50 in assay [2] (Homo sapiens, 168 h) was under 20 nM; in assay [3] (Homo sapiens, A549, 168 h), under 20 nM.

In assay [1], `C[C@]1(CCc2cc(F)c3cc(Cl)c(N)nc3c2)C[C@@H](n2cc(F)c3c(N)nccc32)[C@H](O)[C@@H]1O` [Compound 43, (1S,2R,3S,5R)-3-(2-(2-amino-3-chloro-5-fluoroquinolin-7-yl)ethyl)-5-(4-amino-3-fluoro-1H-pyrrolo[3,2-c]pyridin-1-yl)-3-methylcyclopentane-1,2-diol] returned an IC50 of under 1 nM. The EC50 in assay [2] (Homo sapiens, 168 h) is 20 to 100 nM; in assay [3] (Homo sapiens, A549, 168 h), under 20 nM.

With `CC(C)C(=O)O[C@H]1[C@H](n2ccc3c(N)ncnc32)[C@H]2C[C@@]2(CCc2ccc3nc(N)ccc3c2)[C@H]1OC(=O)C(C)C` [Compound 25-A, (1R,2R,3S,4R,5S)-4-(4-amino-7H-pyrrolo[2,3-d]pyrimidin-7-yl)-1-(2-(2-aminoquinolin-6-yl)ethyl)bicyclo[3.1.0]hexane-2,3-diyl bis(2-methylpropanoate)], the IC50 in assay [1] was over 100 nM. The EC50 in assay [2] (Homo sapiens, 168 h) was at least 1000 nM; in assay [3] (Homo sapiens, A549, 168 h), at least 1000 nM.
